Data: BindingDB's records for doi:10.1016/s0960-894x(00)00294-8 (Universität Göttingen, 2000)

Assay: Compound was evaluated for inhibitory effect against protein phosphatase I (PP-I)

| IC50 [µM] | Compound |
| --- | --- |
| 11 | CCCCCCCCCCCCCCCC(=O)OC[C@@H](O)[C@H]1OC(=O)[C@]2(O)CCC(O)O[C@]12OC (stereo partly drawn) [Hexadecanoic acid (R)-2-((4aS,7R,7aR)-2,4a-dihydroxy-7a-methoxy-5-oxo-hexahydro-furo[3,4-b]pyran-7-yl)-2-hydroxy-ethyl ester] |
| 3 | CCCCCCCCCCCCCCCC(=O)OC[C@@H](O)[C@H]1OC(=O)[C@]2(CCC(OC(C)C)O2)C1=O (stereo partly drawn) [Hexadecanoic acid (R)-2-hydroxy-2-((5S,8R)-2-isopropoxy-6,9-dioxo-1,7-dioxa-spiro[4.4]non-8-yl)-ethyl ester] |
